# Results published in patent US10501413B2, “Inhibitors of the Notch transcriptional activation complex and methods for use of the same” (UNIVERSITY OF MIAMI, priority 2015, dated 2019).
# What was measured:
# [1] = system: OE19 human esophageal adenocarcinoma xenograft; test: OE19 cell line xenograft; assay type: in vivo; conditions: nude mouse
# Excerpt: The effect of the inhibitors of the disclosure on tumor formation in an animal was investigated using a xenograft model. When introduced into the flank of nude mouse 5×10^6 OE19 cells, a human esophageal adenocarcinoma cell line readily forms tumors over the course of 4 weeks. […] In contrast, treatment under the same regimen with a DMSO control had no effect on tumor growth. […] (FIG. 4) Six-week-old NOD-SCID gamma (“NSG”) mice were purchased from Jackson Laboratories and CD-1 Nude mice were purchased from Charles River Laboratories. For the cell line based xenografts assay, 5×10^6 OE19 cells in 200 μl serum-free culture medium were injected subcutaneously per mouse. The mice in the treatment group were injected with 15 mg/kg of Inhibitor No. 1-134-83 daily, and the mice in the control group were injected with the same volume of vehicle (DMSO). Subcutaneous tumor growth was measured once every 4 days using calipers along with body weight. The experiment was discontinued on day 28. PDX cancer models were established, as described in Zhang et al, Establishment of Patient-Derived Xenograft (PDX) Models of Human Breast Cancer, Current Protocols in Mouse Biology, 3:21-29 (2013), in NSG mice. […] Tumor growth was monitored every 4 days and tumor volume was measured by the formula: Volume=(S×S×L)/2, where S and L are the short and long dimensions. […]
# [2] = target: CSL (Homo sapiens, UniProt Q06330); test: Surface plasmon resonance binding to CSL; conditions: SPR, equilibrium response fitted to 1:1 binding model
# CSL, sequence (Q06330 whole entry): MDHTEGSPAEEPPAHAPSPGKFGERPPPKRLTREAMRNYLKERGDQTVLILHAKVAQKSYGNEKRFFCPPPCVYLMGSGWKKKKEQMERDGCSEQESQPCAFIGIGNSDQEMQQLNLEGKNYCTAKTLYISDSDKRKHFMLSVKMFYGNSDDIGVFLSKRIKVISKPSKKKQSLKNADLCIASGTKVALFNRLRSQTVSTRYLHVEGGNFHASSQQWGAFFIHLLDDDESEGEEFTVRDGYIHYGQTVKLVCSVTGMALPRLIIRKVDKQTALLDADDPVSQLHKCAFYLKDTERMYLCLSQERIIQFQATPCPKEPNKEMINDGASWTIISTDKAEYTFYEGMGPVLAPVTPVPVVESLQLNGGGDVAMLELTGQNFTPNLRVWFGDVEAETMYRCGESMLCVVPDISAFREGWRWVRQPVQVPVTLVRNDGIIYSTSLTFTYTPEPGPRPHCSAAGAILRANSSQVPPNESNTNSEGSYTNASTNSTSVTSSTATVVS
# Description: (§1) The inhibitors described herein were subjected to surface plasmon resonance (“SPR”) to determine their binding constants to the NICD and CSL components of the NTC. In particular, the target protein (NICD1) was immobilized on the dextran surface of the SPR sensor chip. Through a microflow system, a solution with the inhibitor was injected over the immobilized protein layer. The inhibitor bound to the immobilized protein, which led to an increase in SPR signal, indicating association of the ligand to the target protein. After 45 seconds, buffer solution was injected on the microfluidics that dissociated the bound complex between the ligand and the inhibitor. As the inhibitor dissociated from the ligand, a decrease in SPR signal was observed. The equilibrium dissociation constant KD was determined by plotting the equilibrium response (Req) as a function of the concentration of the ligand, and fitting the data to a 1:1 binding model. The results are listed in […].
# [3] = target: T1, Notch transcriptional activation complex (CSL, Notch1, MAML1 on DNA) (Homo sapiens, UniProt P46531+Q06330); test: Notch complex assembly assay (ALPHASCREEN); assay type: biochemical
# T1 construct: the intracellular domain of Notch (“NICD”); made in house; host or cells: SF21 insect cells (baculovirus)
# T1 sequence (P46531 1754-2555 limits assumed): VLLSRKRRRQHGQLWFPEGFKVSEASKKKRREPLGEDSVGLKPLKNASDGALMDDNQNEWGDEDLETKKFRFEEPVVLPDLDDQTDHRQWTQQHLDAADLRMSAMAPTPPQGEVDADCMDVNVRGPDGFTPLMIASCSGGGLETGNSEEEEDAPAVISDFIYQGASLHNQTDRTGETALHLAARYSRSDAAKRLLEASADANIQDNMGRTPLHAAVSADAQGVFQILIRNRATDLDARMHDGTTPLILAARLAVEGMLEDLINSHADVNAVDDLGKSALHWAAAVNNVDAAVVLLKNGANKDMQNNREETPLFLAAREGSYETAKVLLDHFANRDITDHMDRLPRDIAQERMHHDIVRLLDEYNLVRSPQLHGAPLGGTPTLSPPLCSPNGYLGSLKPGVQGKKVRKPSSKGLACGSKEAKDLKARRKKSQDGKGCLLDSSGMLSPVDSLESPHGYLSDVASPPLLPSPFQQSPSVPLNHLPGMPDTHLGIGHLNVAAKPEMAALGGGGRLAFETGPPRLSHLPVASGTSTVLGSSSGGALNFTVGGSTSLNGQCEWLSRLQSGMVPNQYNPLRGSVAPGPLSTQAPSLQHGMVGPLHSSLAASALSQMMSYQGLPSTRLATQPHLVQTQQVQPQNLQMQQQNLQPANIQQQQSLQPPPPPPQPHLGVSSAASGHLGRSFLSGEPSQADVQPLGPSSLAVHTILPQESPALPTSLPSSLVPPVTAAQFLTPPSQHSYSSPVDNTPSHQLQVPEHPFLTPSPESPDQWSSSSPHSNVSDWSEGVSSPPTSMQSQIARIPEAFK
# T1 sequence (Q06330 whole entry, the tested form may be a part): as the sequence (Q06330 whole entry) above
# Excerpt: An in vitro assay was developed to monitor the assembly of the Notch transcriptional complex (“NTC”) on DNA. The NTC, which includes the Notch, Mastermind (“MAML1”), and CSL proteins, binds to a specific DNA sequence in a CSL-dependent manner. For the assay, baculovirus produced CSL, Notch, and MAML1 were mixed together with a biotinylated DNA oligomer containing the CSL target sequence. Assembly of the NTC on DNA was then monitored with the proximity-based ALPHASCREEN (Perkin Elmer) using streptavidin and protein A beads (FIGS. 1A and 1B). A signal results when MAML1 is recruited to CSL bound DNA.
# All recombinant proteins were expressed using baculovirus expression vectors in SF21 cells and purified. Unless otherwise stated, all assays contained 125 fmol of double stranded oligonucleotide, CSL, Notch1 and MAML1 proteins. Reactions were carried out in Tris-buffered saline with 0.1% Tween (“TBS-T”) buffer containing 0.2% bovine serum albumin (“BSA”) and 100 ug/mL salmon sperm DNA. Briefly, the Notch complex was assembled on a biotinylated double stranded (“DS”) oligonucleotide harboring one CSL binding site (5′-[…]-3′). Complex assembly was quantitated using ALPHASCREEN technology (Perkin Elmer). Proteins in the complexes were detected using specific antibodies to either MAML1 (Cell signaling, D3K7B), Notch1 (Abcam, 52627) or CSL (anti-His, Abcam 18184). Streptavidin conjugated acceptor beads (Perkin Elmer, 6760002) were used to bind the DS oligonucleotide, and Protein-A conjugated donor beads (Perkin Elmer, 6760137) were used to detect antibody-coated proteins. For screening compounds, Notch transcriptional activation complex (“NTC”) components were added to wells that already contained the inhibitor to be assayed and allowed to incubate for 30 minutes. The ALPHASCREEN plate (Perkin Elmer, 6008350) was then read on an Envision Plate reader (Perkin Elmer) as specified by the manufacturer.
# Determination of Equilibrium Dissociation Constants (KD) and Half Maximal Inhibitory Concentrations (IC50)
# [4] = target: T2, NICD1 (Homo sapiens, UniProt P46531); test: Surface plasmon resonance binding to immobilized NICD; conditions: SPR, equilibrium response fitted to 1:1 binding model
# T2 construct: the intracellular domain of Notch (“NICD”)
# T2 sequence (P46531 1754-2555 limits assumed): as the sequence (P46531 1754-2555 limits assumed) above
# Description: as §1
# [5] = system: Notch target gene transcription; test: RT-qPCR of Notch target genes in cancer cell lines; assay type: cell-based, human
# Description: The effect of inhibitor treatment on Notch-target gene transcription also was investigated (FIGS. 2C and 2D). […] As proof of specificity, transcription of the housekeeping gene, HPRT, was unaltered in treated cells. To test the effects of Notch inhibition on proliferation, a colony formation assay was performed.
# To extend the analysis of tumor cell growth inhibition, several commonly used cancer cell lines were selected to test for sensitivity to Inhibitor No. 1-134-83 (FIGS. 3A and 3B). […] In this analysis, sensitivity to DAPT is taken to indicate specific inhibition of Notch activity. […] Cells that are refractory to DAPT were equally resistant to Inhibitor No. 1-134-83.
# RT-PCR analysis was performed using TaqMan probes according to manufacturer's instructions. In particular, 80 ng of RNA equivalent was used per reaction. Gene expression was normalized to the TATA-binding protein (“TBP”) gene. As a control, hypoxanthine phosphoribosyltransferase 1 (“HPRT”) gene expression was also monitored.
compound,measurement,setting,value
CCOC(=O)COc1ccc(/C=C2\SC(=S)NC2=O)cc1OC [1-134-83],adverse effects on the animal (e.g. change in body weight),[1]; 15 mg/kg every day,no adverse effects
same,tumor establishment,[1]; 15 mg/kg every day from second day after transplantation,tumor establishment was blocked
same,Kd,[2],8 ± 2 µM
same,IC50,[3],26 µM
same,Kd,[4],11 ± 3 µM
same,Notch target gene transcription,"[5]; OE33 and 786-0 cells, qPCR",dose-dependent decrease
same,transcription of control gene HPRT,"[5]; OE33 and 786-0 cells, qPCR",unaltered
same,Notch target gene transcription,"[5]; insensitive cancer cell lines of the panel, 48 hrs",do not show a statistically significant reduction
same,Notch target gene transcription,"[5]; sensitive cancer cell lines of the panel, 48 hrs, DAPT 10, 1-134-83 15 and 25 μM",significantly reduced
